Laboratory results from US20260159525A1, “TRICYCLIC HETEROCYCLES” (Merck Patent GmbH, priority 2021, published 2026).

How the values were obtained:
Assay type in all cases: cell-based
YAP-TEAD interaction = assay: SK-HEP-1 reporter assay (8x TEAD responsive elements driving NanoLuc luciferase); conditions: Homo sapiens, SK-HEP1, SK-HEP-1 cells, 24 hour incubation
In short: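 SK-HEP-1 cells carrying a stably integrated 8× TEAD-element NanoLuc reporter, seeded 24 h before dosing, were treated in duplicate with a 10-point dose series (top 30 μM final, 0.3% DMSO) for 24 h at 37°C, 5% CO2. Luciferase activity read by NanoGlo luminescence; IC50 derived from it.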

NCI-H226 cells = assay: Viability assay in NCI-H226 (Yap-dependent) cells, CyQUANT; conditions: Homo sapiens, NCI-H226 YAP dependent cell line, 96 hour incubation, group symbols
Method: (§1) Viability Assay in NCI-H226 (Yap-Dependent) and SW620 Yap KO (Yap Independent) Cells
(§2) The ability of YAP-TEAD inhibitors to inhibit tumor cell growth was evaluated using two different cell lines: NCI-H226, which is a YAP dependent cell line, and SW620 cells, where YAP and TAZ were knocked out using CRISPR to generate a YAP independent cell line.
(§3) For the assay, cells were treated in duplicates with the test compounds in a 10-point dose, 1:3 dilution steps, with the top concentration starting at 30 μM (final concentration in assay). After a 96 hour incubation at 37° C., 95% rH, and 5% CO2, a cell-permeant DNA-binding dye that stains only healthy cells (CyQUANT®, Promega) was added to the cells, allowing the quantification of cell viability.
(§4) Cell Media: The NCI-H226 cells were cultured in the following media: RPMI 1640, +10% FBS, +1× GlutaMAX, +10 mM HEPES, +0.5% Pen/Strep. The SW620-KO cells were cultured in the following media: DMEM/F-12, +10% FBS, +1× GlutaMAX, +10 mM HEPES, +0.5% Pen/Strep.
(§5) Reagents: The reagents used are listed below:
(§6) Cell culture: The cells were examined using an inverted microscope to check for health, cell density, etc. To dissociate adherent cells, the monolayer of cells was washed once with pre-warmed PBS. After removing the PBS, 3 ml pre-warmed Accutase was added to a F75 flask, dispersed evenly and the flask was allowed to sit in incubator for ˜4-5 minutes.
(§7) When a single cell suspension was obtained, 7 ml of prewarmed growth media was added and resuspended with the cells. The cell suspension was transferred to a sterile 15 ml conical centrifuge tube, and spun for 5 min at 300×g, RT. The supernatant was discarded and the pellet was resuspended in 10 ml of pre-warmed growth media.
(§8) The total cell count was determined, and 20 μl of the desired cell number was added to each well of a 384 well plate using a Multidrop Combi. The plates were then incubated for 24 hours at 37° C., 95% rH, and 5% CO2.
(§9) Compound treatment: 24 hours after seeding, the cells were treated with compounds.
(§10) A 1:333 dilution of compounds, diluted in DMSO, was made to get a final concentration of 0.3% DMSO per well. To transfer the compounds to the assay plate, 120 nl was shot from Labcyte low dead volume plates to the cell plates containing 20 μl media/well with the ECHO 555 liquid handling system. After treatment, the cells were fed with 20 μl fresh pre-warmed assay media using a Multidrop combi.
(§11) The assay plates were then incubated for 96 h at 37° C., 95% rH, and 5% CO2.
(§12) 96 h after treatment 30 μl of CyQuant® reagent was added to the assay plates using a Multidrop combi in the dark. The plates were then incubated for 1 hour at 37° C., 95% rH and 5% CO2. Thereafter, the assay plates were removed from the incubator and allowed to equilibrate to RT for 30 min in the dark without lid. Finally, they were measured using an EnVision microplate reader with a FITC bottom read program.

SW620 Yap KO cells = assay: Viability assay in SW620 Yap KO (Yap independent) cells, CyQUANT; conditions: Homo sapiens, SW-620, SW620 YAP and TAZ knocked out (YAP independent), 96 hour incubation
Method: as §1, §2, §3, §4, §5, §6, §7, §8, §9, §10, §11, §12

[1] = number, or n.d. (x) = not detectable below threshold x
[2] = n.d. (x) = not detectable below threshold x

Structure (SMILES) | IC50 (YAP-TEAD interaction; [1]) [nM] | IC50 (NCI-H226 cells) [nM] | IC50 (SW620 Yap KO cells; [2]) [µM] | IC50 (YAP-TEAD interaction; group symbols) [nM] | IC50 (SW620 Yap KO cells; group symbols) [µM]
Cn1cc2c3cc(-c4noc(=O)[nH]4)sc3n(-c3ccc(C(F)(F)F)cc3)c2n1 [Compound 80, 3-{4-methyl-7-[4-(trifluoromethyl)phenyl]-9-thia-4,5,7-triazatricyclo[6.3.0.0^2,6]undeca-1(8),2,5,10-tetraen-10-yl}-4,5-dihydro-1,2,4-oxadiazol-5-one] | > 30000 | 100 to 1000 | > 30 | – | –
C[C@H](CO)NC(=O)c1cc2c3cn(C)nc3n(-c3ccc(OC(F)(F)F)cc3)c2s1 [Compound 50, N-[(2R)-1-hydroxypropan-2-yl]-4-methyl-7-[4-(trifluoromethoxy)phenyl]-9-thia-4,5,7-triazatricyclo[6.3.0.0^2,6]undeca-1(8),2,5,10-tetraene-10-carboxamide] | – | 1 to 100 | > 30 | 100 to 10000 | –
CNC(=O)c1cc2c(s1)c1c(ncn1C)n2-c1ccc(C(F)(F)F)cc1 [Compound 21, N,3-dimethyl-7-[4-(trifluoromethyl)phenyl]-11-thia-3,5,7-triazatricyclo[6.3.0.0^2,6]undeca-1(8),2(6),4,9-tetraene-10-carboxamide] | – | 100 to 1000 | – | 100 to 10000 | 1 to 10
Cn1cc2c3cc(C(=O)NCCO)sc3n(-c3ccc(C(F)(F)F)cc3)c2n1 [Compound 64, N-(2-hydroxyethyl)-4-methyl-7-[4-(trifluoromethyl)phenyl]-9-thia-4,5,7-triazatricyclo[6.3.0.0^2,6]undeca-1(8),2,5,10-tetraene-10-carboxamide] | > 950 | 1 to 100 | > 3 | – | –
Cn1cc2c3cc(C(=O)NC4(CO)CC4)sc3n(-c3ccc(C(F)(F)F)cc3)c2n1 [Compound 91, N-[1-(hydroxymethyl)cyclopropyl]-4-methyl-7-[4-(trifluoromethyl)phenyl]-9-thia-4,5,7-triazatricyclo[6.3.0.0^2,6]undeca-1(8),2,5,10-tetraene-10-carboxamide] | > 30000 | 1 to 100 | > 30 | – | –
Cn1cc2c3cc(C(=O)NCC(O)CO)sc3n(-c3ccc(C(F)(F)F)cc3)c2n1 (centres unmarked) [Compound 97, N-(2,3-dihydroxypropyl)-4-methyl-7-[4-(trifluoromethyl)phenyl]-9-thia-4,5,7-triazatricyclo[6.3.0.0^2,6]undeca-1(8),2,5,10-tetraene-10-carboxamide] | – | 100 to 1000 | > 30 | 1 to 10 | –
C[C@@H](CO)NC(=O)c1cc2c3cn(C)nc3n(-c3ccc(C(F)(F)F)cc3)c2s1 [Compound 68, N-[(2S)-1-hydroxypropan-2-yl]-4-methyl-7-[4-(trifluoromethyl)phenyl]-9-thia-4,5,7-triazatricyclo[6.3.0.0^2,6]undeca-1(8),2,5,10-tetraene-10-carboxamide] | > 950 | 1 to 100 | > 3 | – | –
C[C@H](CO)NC(=O)c1cc2c3cn(C)nc3n(-c3ccc(C(F)(F)F)cc3)c2s1 [Compound 33, N-[(2R)-1-hydroxypropan-2-yl]-4-methyl-7-[4-(trifluoromethyl)phenyl]-9-thia-4,5,7-triazatricyclo[6.3.0.0^2,6]undeca-1(8),2,5,10-tetraene-10-carboxamide] | – | 1 to 100 | > 3.2 | 10 to 100 | –
Cn1cc2c3cc(C(=O)N[C@@H](CO)c4ccccn4)sc3n(-c3ccc(C(F)F)cn3)c2n1 [Compound 120, 7-[5-(difluoromethyl)pyridin-2-yl]-N-[(1R)-2-hydroxy-1-(pyridin-2-yl)ethyl]-4-methyl-9-thia-4,5,7-triazatricyclo[6.3.0.0^2,6]undeca-1(8),2,5,10-tetraene-10-carboxamide] | > 300 | 100 to 1000 | > 30 | – | –
Cn1ccc(C(CO)NC(=O)c2cc3c4cn(C)nc4n(-c4ccc(C(F)(F)F)cc4)c3s2)n1 (centres unmarked) [Compound 96, N-[2-hydroxy-1-(1-methyl-1H-pyrazol-3-yl)ethyl]-4-methyl-7-[4-(trifluoromethyl)phenyl]-9-thia-4,5,7-triazatricyclo[6.3.0.0^2,6]undeca-1(8),2,5,10-tetraene-10-carboxamide] | – | 1 to 100 | > 30 | 10 to 100 | –
COCCC(CO)NC(=O)c1cc2c3cn(C)nc3n(-c3ccc(C(F)(F)F)cc3)c2s1 (racemic) [Compound 63, N-(1-hydroxy-4-methoxybutan-2-yl)-4-methyl-7-[4-(trifluoromethyl)phenyl]-9-thia-4,5,7-triazatricyclo[6.3.0.0^2,6]undeca-1(8),2,5,10-tetraene-10-carboxamide] | > 9500 | 1 to 100 | > 3 | – | –
Cn1cc2c3cc(C(=O)O)sc3n(-c3ccc(SC(F)(F)F)cc3)c2n1 [Compound 40, 4-methyl-7-{4-[(trifluoromethyl)sulfanyl]phenyl}-9-thia-4,5,7-triazatricyclo[6.3.0.0^2,6]undeca-1(8),2,5,10-tetraene-10-carboxylic acid] | – | 1 to 100 | > 30 | 10 to 100 | –
Cn1cc2c3cc(C(=O)NCc4ccccn4)sc3n(-c3ccc(C(F)(F)F)cc3)c2n1 [Compound 66, 4-methyl-N-[(pyridin-2-yl)methyl]-7-[4-(trifluoromethyl)phenyl]-9-thia-4,5,7-triazatricyclo[6.3.0.0^2,6]undeca-1(8),2,5,10-tetraene-10-carboxamide] | > 9500 | 1 to 100 | > 3 | – | –
Cn1cc2c3cc(C(=O)N4CC[C@H](O)C4)sc3n(-c3ccc(C(F)(F)F)cc3)c2n1 [Compound 69, (3S)-1-{4-methyl-7-[4-(trifluoromethyl)phenyl]-9-thia-4,5,7-triazatricyclo[6.3.0.0^2,6]undeca-1(8),2,5,10-tetraene-10-carbonyl}pyrrolidin-3-ol] | > 30000 | 1 to 100 | > 3.2 | – | –
Cc1nc2c3sc(C(=O)O)cc3n(-c3ccc(OC(F)(F)F)cc3)c2s1 [Compound 25, 4-methyl-7-[4-(trifluoromethoxy)phenyl]-5,11-dithia-3,7-diazatricyclo[6.3.0.0^2,6]undeca-1(8),2(6),3,9-tetraene-10-carboxylic acid] | – | 100 to 1000 | > 30 | 10 to 100 | –
Cn1cc2c3cc(C(=O)O)sc3n([C@H]3CC[C@@H](C(F)(F)F)CC3)c2n1 [Compound 51, 4-methyl-7-[(1s,4s)-4-(trifluoromethyl)cyclohexyl]-9-thia-4,5,7-triazatricyclo[6.3.0.0^2,6]undeca-1(8),2,5,10-tetraene-10-carboxylic acid] | – | – | > 30 | 100 to 10000 | –
CNC(=O)c1cc2c(s1)c1cn(C)nc1n2-c1ccc(C(F)(F)F)cc1 [Compound 1, N,10-dimethyl-7-[4-(trifluoromethyl)phenyl]-3-thia-7,9,10-triazatricyclo[6.3.0.0^2,6]undeca-1(11),2(6),4,8-tetraene-4-carboxamide] | – | > 10000 | – | 100 to 10000 | –
Cn1nc2c3sc(C(=O)O)cc3n(-c3ccc(C(F)(F)F)cc3)c2n1 [Compound 3, 4-methyl-7-[4-(trifluoromethyl)phenyl]-11-thia-3,4,5,7-tetraazatricyclo[6.3.0.0^2,6]undeca-1(8),2,5,9-tetraene-10-carboxylic acid] | – | 100 to 1000 | – | 10 to 100 | –
CNC(=O)c1cc2c(s1)c1nn(C)nc1n2-c1ccc(C(F)(F)F)cc1 [Compound 5, N,4-dimethyl-7-[4-(trifluoromethyl)phenyl]-11-thia-3,4,5,7-tetraazatricyclo[6.3.0.0^2,6]undeca-1(8),2,5,9-tetraene-10-carboxamide] | – | 1000 to 10000 | – | > 10000 | –
